Reference: patent US20240197628A1, “INHALABLE DRY POWDER FORMULATIONS COMPRISING ANGIOGENESIS INHIBITORS” (Lonza Bend Inc., priority 2020, published 2024)

Key:
NSCLC cell line Calu-3 = experiment: Orthotopic nude rat model for lung cancer, in vivo efficacy study; settings: each with cisplatin IP 3 mg/kg, 1.5 mg/kg deposited INH vs 15 mg/kg IP, 8 weeks
Method: NSCLC cell line Calu-3 was instilled into the lungs of X-irradiated rats by an intratracheal route, targeting 1.5×10^7 cells per installation. For the first four weeks of the study, no treatment was administered, allowing growth of the tumor cells. Inhaled bevacizumab SDD was evaluated as a primary treatment as well as a maintenance therapy.
Cisplatin was administered by IP at 3 mg/kg. Powder was aerosolized using a rotating brush generator and delivered to the rats passively through nasal inhalation. […] Groups 1-4 were evaluated for primary efficacy after 8 weeks with lung weight as the end point. Groups 5-7 were evaluated for maintenance efficacy after 12 weeks with lung weight and survival as the end point.

[1] = solution prepared 18 hours before spray drying; cited from earlier work

Compound: Bevacizumab [bevacizumab control]
- tumor burden, inhaled vs IP bevacizumab (NSCLC cell line Calu-3; listed as IP bevacizumab): indistinguishable
- tumor burden, inhaled vs IP bevacizumab (NSCLC cell line Calu-3; listed as bevacizumab delivered via IP injection): equal

Compound: N.N.[Cl][Pt][Cl] [cisplatin]
- stability in aqueous solution [1]: converts to transplatin
